Columns and labels:
[1] = Highest frequency of moderate liver toxicity observed during clinical trials, expressed as a percentage. [column '% BIOL' in source]; settings: human
[2] = Highest frequency of acute liver toxicity observed during clinical trials, expressed as a percentage. [column '% AIGUE' in source]; settings: human
[3] = Times to onset, minimal and maximal, observed in the indexed observations. [column 'DELAI' in source]; settings: human
[4] = human, serum
[5] = human, serum; remark: listed apart in the source
[6] = human
[7] = human; remark: listed apart in the source
[8] = human; remark: listed apart in the source
[9] = human, serum, 4383 h
[10] = human; remark: listed apart in the source
[11] = human; remark: listed apart in the source
[12] = human; remark: listed apart in the source
[13] = human; remark: listed apart in the source
[14] = human; remark: listed apart in the source
[15] = human; remark: listed apart in the source
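Throughout, for Hepatotoxicity (association with vascular disease): count of indexed literature references reporting vascular liver injury in humans, e.g. peliosis hepatitis, hepatic veno-occlusive disease or Budd-Chiari syndrome.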
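Throughout, for Hepatotoxicity (benign tumour): value is a count of indexed literature references citing a benign tumour confirmed by histopathology.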
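Throughout, for Hepatotoxicity (choleostasis): human cholestatic liver injury, shown by histopathology or by peak ALT or AST elevation over alkaline phosphatase ratio below 2, value counts indexed literature reports.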
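Throughout, for Hepatotoxicity (chronic liver disease): chronic liver injury confirmed by histopathology or persistently raised serum aminotransferase activity beyond 6 months, value given as the count of indexed literature references.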
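Throughout, for Hepatotoxicity (cirrhosis): value is a count of indexed literature references reporting cirrhosis confirmed by histopathology.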
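Throughout, for Hepatotoxicity (cytolytic): human cytolytic liver injury, shown by histopathology or by a ratio above 5 of peak ALT or AST elevation to alkaline phosphatase elevation, value counts indexed references.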
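Throughout, for Hepatotoxicity (granulomatous hepatitis): value is a count of indexed literature references reporting granulomatous liver disease confirmed by histopathology.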
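Throughout, for Hepatotoxicity (malignant tumour): malignant tumour confirmed by histopathology, value gives the count of indexed literature references reporting it.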
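Throughout, for Hepatotoxicity (severe hepatitis): human clinical data: severe hepatitis, meaning potentially life-threatening liver failure or clinically observed cases, the value counts how many indexed literature references report it.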
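Throughout, for Hepatotoxicity (steatosis): steatosis confirmed by histopathology, value is the count of indexed references.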

Row | Structure (SMILES) | Hepatotoxicity (moderate) [1] [%] | Hepatotoxicity (acute) [2] [%] | Hepatotoxicity (time to onset) [3] | Hepatotoxicity (moderate) [4] | Hepatotoxicity (acute) [5] | Hepatotoxicity (cytolytic) [6] | Hepatotoxicity (choleostasis) [7] | Hepatotoxicity (severe hepatitis) [8] | Hepatotoxicity (chronic liver disease) [9] | Hepatotoxicity (cirrhosis) [10] | Hepatotoxicity (granulomatous hepatitis) [11] | Hepatotoxicity (association with vascular disease) [12] | Hepatotoxicity (steatosis) [13] | Hepatotoxicity (malignant tumour) [14] | Hepatotoxicity (benign tumour) [15]
1 | CCN[C@@H](C)Cc1cccc(C(F)(F)F)c1 [DEXFENFLURAMINE] | 0 | 0 | 4 years | 0 | 0 | 0 | 0 | 0 | 0 | 1 | 0 | 0 | 0 | 0 | 0
2 | O=[As](O)(O)c1ccc(NCCNc2ccc([As](=O)(O)O)cc2)cc1 [DIFETARSONE] | 6 | 0 | 2 days - 3 weeks | 1 | 2 | 2 | 2 | 0 | 0 | 0 | 0 | 0 | 0 | 0 | 0
3 | CC(=O)O[C@@]12CO[C@@H]1C[C@H](O)[C@@]1(C)C(=O)[C@H](O)C3=C(C)[C@@H](OC(=O)[C@H](O)[C@@H](NC(=O)OC(C)(C)C)c4ccccc4)C[C@@](O)([C@@H](OC(=O)c4ccccc4)[C@H]21)C3(C)C.O.O.O [DOCETAXEL] | 20 | 14.3 | 3 days - 8 days | 3 | 4 | 2 | 1 | 1 | 0 | 0 | 0 | 0 | 0 | 0 | 0
4 | O=c1[nH]c2ccccc2n1CCCN1CCC(n2c(=O)[nH]c3cc(Cl)ccc32)CC1 [DOMPERIDONE] | 0 | 0 | < 1 week | 0 | 1 | 1 | 0 | 0 | 0 | 0 | 0 | 0 | 0 | 0 | 0
5 | CN1c2c(oc(=O)n(-c3ccccn3)c2=O)-c2ccccc2S1(=O)=O [DROXICAM] | 0 | > 0 | 10 days - 7 weeks | 0 | 7 | 4 | 6 | 0 | 0 | 0 | 1 | 0 | 0 | 0 | 0
6 | CS[C@H]1SC[C@H]2C(=O)N(C)[C@@H](C(C)C)C(=O)OC[C@@H](NC(=O)c3cnc4ccccc4n3)C(=O)N[C@@H](C)C(=O)N(C)[C@@H]1C(=O)N(C)[C@@H](C(C)C)C(=O)OC[C@@H](NC(=O)c1cnc3ccccc3n1)C(=O)N[C@@H](C)C(=O)N2C [ECHINOMYCIN] | 29.4 | 4.8 | 4 days - 19 days | 8 | 4 | 3 | 0 | 1 | 0 | 0 | 0 | 0 | 0 | 0 | 0
7 | Clc1ccc(COC(Cn2ccnc2)c2ccc(Cl)cc2Cl)cc1 (stereo not given) [ECONAZOLE] | 0 | 0 | 4 months | 1 | 1 | 0 | 0 | 0 | 0 | 0 | 0 | 0 | 0 | 0 | 0
